Consider one compound from patent US11844801B2, “Oral compositions of MK2 pathway inhibitor for treatment of immune conditions” (priority 2020, dated 2023).

As a reminder, the Cmax is the maximum level reached in the sampled fluid or tissue. One may read the NOAEL as the highest dose or exposure tested at which no adverse effect was seen.

Series [1] deals with p-HSP27 (phosphorylated heat shock protein 27). The series can be described thus: Ex vivo LPS-stimulated p-HSP27 in blood of dosed healthy subjects, PK/PD inhibitory Emax model. More on the design: species or system human. The method, then:
Blood samples of 10 mL were collected for PD analysis. For the SAD cohorts, blood was collected before dosing and 1, 12, and 24 hours after dosing. For the MAD cohorts, on day 1 blood was collected before the morning dose and 4 and 12 hours after the morning dose (prior to the evening dose); on day 7, blood was collected before the morning dose and 4 and 12 hours after the morning dose.
Additional details of the assays for analyzing p-HSP27 and cytokines are included in the Supplementary Information.
Pharmacodynamics. PD data analysis was conducted using Microsoft Excel 2010 (Microsoft, Redmond, WA), Meso Scale Discovery Workbench® analysis software (Rockville, MD), and Phoenix WinNonlin, version 8.2.
Sample Preparation for p-HSP27 Analysis. […] Treatment groups consisted of 3 tubes for group ‘A’, 2 tubes for group ‘B’, and 1 tube for group ‘C’.
Dimethyl sulfoxide (DMSO) was added to all tubes in groups ‘A’ and ‘C’ to a final concentration of 0.1% (10 μL per mL of a 10% DMSO solution in Dulbecco's Modified Eagle Medium (DMEM) containing 10% fetal bovine serum (FBS) and 1% penicillin/streptomycin/glutamine). Samples were then rocked gently at room temperature. […] Samples were then rocked gently at room temperature for a minimum of 1 hour.
Samples in groups ‘A’ and ‘B’ were stimulated with lipopolysaccharide at a final concentration of 100 ng/mL for 22 minutes at room temperature. A stock solution of lipopolysaccharide at 1 mg/mL in DMEM containing 10% FBS and 1% penicillin/streptomycin was diluted to 10 μg/mL in DMEM containing 10% FBS and 1% penicillin/streptomycin, and 10 μL of this working solution was added per mL of blood. Samples were gently rocked at room temperature for 11 minutes, then placed upright for 11 minutes prior to peripheral blood mononuclear cells (PBMC) isolation.
Ten μL of DMEM containing 10% FBS only was added per mL of blood in group ‘C’ for all patient samples (unstimulated samples). Samples were gently rocked at room temperature for 11 minutes, then placed upright for 11 minutes prior to PBMC isolation.
Upon completion of treatment (lipopolysaccharide stimulated or unstimulated) for each sample, PBMCs were isolated from each human whole blood aliquot in all treatment groups. One mL of blood from each sample was gently layered onto 0.75 mL of Histopaque-1077 in a 2-mL microcentrifuge tube. Histopaque-1077 was maintained at room temperature. The samples were centrifuged for 2 minutes at 16,000×g in an Eppendorf microcentrifuge. The interface and upper layers were removed and added to tubes containing 1 mL cold Dulbecco's phosphate-buffered saline (DPBS). These samples were then centrifuged for 30 seconds at 16,000×g in an Eppendorf microcentrifuge to pellet the cells. The buffer supernatant was removed by aspiration and the pellets were re-suspended in 1 mL of cold DPBS. The pellets from each sample were then re-pelleted, as described above. […]
Analysis of p-HSP27 (Ser78) Levels Using Luminex Technology. The lysates were analyzed for HSP27 phosphorylation with a custom Milliplex® MAP Human Phospho-HSP27(Ser78) Cell Signaling Magnetic Bead Kit from Millipore Sigma (Burlington, MA) using the kit-prescribed immunoassay protocol for a 96-well solid plate and hand-held magnetic separation block. […]

Series [2] has as its system regulatory T cells (CD45+ CD3+ CD4+ Foxp3+). The series can be described thus: Murine collagen-induced arthritis model, T regulatory cells in popliteal lymph nodes. It is filed as in vivo, mouse. The settings on record: 1000 ppm chow from day 18, murine CIA model. The method, then: In this model DBA/1 mice (12/group) were immunized with bovine collagen/CFA to induce arthritis. […] At day 21, mice were boosted with bovine collagen/CFA, and at day 35 the study was terminated. Popliteal lymph nodes were dissected from mice, cleaned of any trace fat, mechanically dissociated and filtered through 70 micron cell strainers. Live lymphocytes were counted using a Moxi GO II cell counter (Orflo). One million lymphocytes were plated, treated with Fc block, and stained with antibodies targeting surface receptors (including CD45, CD3, CD4) along with a fixable live/dead dye. Cells were fixed/permeabilized (eBioscience Transcription Factor Staining kit) and stained with anti-Foxp3 antibody. The cells were collected via flow cytometry analysis on an Attune NxT instrument. T-regulatory cells were gated as lymphocyte-sized, live, CD45+ CD3+ CD4+ Foxp3+ cells.

Series [3] in a line: 13-week oral administration non-clinical safety study, rat. The format is in vivo. The following applies: for Cmax / AUC(0-t): 30 mg/kg/day oral; for AUC(0-t): read-out: AUC0-24. The method, then: (§1) Study Design. […] Rats were administered 0 (vehicle), 3, 10 and 30 mg/kg/day, and Mini-pigs were administered 0 (vehicle) 10, 30 and 60 mg/kg/day
The nature of series [4]: 13-week oral administration non-clinical safety study, mini-pig. The format is in vivo. The settings on record: for Cmax / AUC(0-t): 60 mg/kg/day oral; for AUC(0-t): read-out: AUC0-24. The method, then:
as §1

Series [5] has as its system TNF-α, IL-1β, IL-6 and IL-8. As to the kind of experiment: R848 (TLR7/TLR8) stimulated cytokines and chemokines in human whole blood. It is filed as cell-based. The following applies: 5 h, R848 0.5 μg/mL, five hours. The method, then: Human whole blood assays were performed as described above with the exceptions listed below. […] Compounds were serially diluted in 100% DMSO (Sigma-Aldrich, D2650) followed by a 10× dilution into RPMI (Gibco, 11875). After the one-hour incubation with the compounds or vehicle, 2 μL of R848 (InvivoGen, tlrl-r848) in RPMI (Gibco, 11875) was added for a final concentration of 0.5 μg/mL to each well except for the no stimulus wells. After five hours of incubation with R848, plasma was harvested and assayed for TNF-α, IL-1β, IL-6 and IL-8 using Meso Scale Discovery Technology V-plex human cytokine kits according to the kit protocol.

The conditions of series [6]: in vivo; cited from earlier work.
Setting [7] is: female, rat, in vivo, study day 88, females.
Where [8] appears, read: male, rat, in vivo, study day 88, males.
[9] abbreviates: female, minipig, in vivo, study day 90, females.
Where [10] appears, read: male, minipig, in vivo, study day 90, males.

With `Cc1cnc(-c2ccnc(C(C)(C)O)n2)cc1-n1c(C)cc(OCc2ncc(F)cc2F)c(Cl)c1=O` (single isomer, unassigned) [ATI-450, 3-chloro-4-((3,5-difluoropyridin-2-yl)methoxy)-2′-(2-(2-hydroxypropan-2-yl)pyrimidin-4-yl)-5′,6-dimethyl-2H-[1,4′-bipyridin]-2-one], in series [1] (50 mg BID, day 7), the “Cmax (Multiple of IC80)” value is given as 6.0x. In series [1] (50 mg BID, day 7), the “Ctrough (Multiple of IC80)” value stood at 2.4x. In addition, the IC80 in series [1] (Homo sapiens, calculated from IC50, combined SAD and MAD data, read-out: IC80, plasma concentration at 80% of maximal inhibition) is 0.0367 mg/L. Besides, the IC50 was 0.0092 mg/L in series [1] (Homo sapiens, inhibitory Emax model, combined SAD and MAD data, read-out: IC50, plasma concentration at half maximal inhibition); roughly 0.1 µM in series [5]. Moreover, the “IC80, plasma concentration at 80% of maximal inhibition” value in series [1] (calculated from IC50, combined SAD and MAD data) is 0.0367 mg/L. Besides, the “number of regulatory T cells” value in series [2] is on record as “significantly increased the number of regulatory T cells”. Moreover, the “non adverse finding, myocytes” value in series [3] (13-week oral) is “Minimal to moderate degeneration of myocytes at all doses, including control animals”. For the same compound, the mortality entry is “No study drug-related mortality was observed” in series [3] (13-week oral, up to 30 mg/kg/day) and “No study drug-related mortality was observed” in series [4] (13-week oral, up to 60 mg/kg/day). Further, the “recovery of rat non adverse findings” value in series [3] (after 13-week dosing) was “complete recovery following 28-day non-dosing period”. The Cmax stood at 5.44 µg/mL in series [3] (setting [7]), 3.26 µg/mL in series [3] (setting [8]), 2.36 µg/mL in series [4] (setting [9]) and 1.67 µg/mL in series [4] (setting [10]). Besides, the AUC(0-t) in series [3] (setting [7]) worked out at 43.5 µg·h/mL; in series [3] (setting [8]), 36.4 µg·h/mL; in series [4] (setting [9]) it was 22.6 µg·h/mL; in series [4] (setting [10]), 14.4 µg·h/mL. Also, the NOAEL at 13 weeks in series [3] (rat, in vivo, 13-week oral, read-out: no-observed adverse effect level (NOAEL)) was 30 mg/kg/day; in series [4] (minipig, in vivo, 13-week oral, read-out: no-observed adverse effect level (NOAEL)), 60 mg/kg/day. Also, the “non adverse finding, nasal area” value in series [3] (several animals at mid and high dose) is “minimal ulceration/mixed cell inflammation”. For the same compound, in series [4] (males at ≥10 mg/kg/day and females at 60 mg/kg/day), the “non-adverse findings, haematology” value was “Slightly increased neutrophil, lymphocyte and platelet counts”. The “effect in rat streptococcal cell wall arthritis model” value in series [6] is “joint protective effects and preserved bone mineral density”.
